PMC3639963, “A New Class of Small Molecule Inhibitor of BMP Signaling” (PLoS ONE, 2013)
Values joined by “and” are separate entries in the source; they are usually repeats but may differ in a detail not shown here. Equal values may be shown once.

Tests used:
Assay in all cases: Nanosyn kinase profiling
Format in all cases: biochemical
ERBB4 = target: T1, ERBB4 (Homo sapiens, UniProt Q15303); details: read-out: Percentage inhibition; for inhibition at 0.1 µM: 0.1 µM inhibitor; for inhibition at 1 µM: 1 µM inhibitor
T1 construct: purchased Nanosyn (enzymatic panel); SGC in-house recombinant human kinases (DSF panel); Invitrogen (ALK1-6)
Summary of the method: (§1)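 Percent inhibition of each kinase was measured with the inhibitor at 0.1 µM and at 1 µM, as part of a 200-kinase human selectivity panel.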

ABL1 = target: T2, ABL1 (Homo sapiens, UniProt P00519); details: for Percentage inhibition: 0.1 µM; for inhibition at 1 µM: 1 µM inhibitor
T2 construct: purchased Nanosyn (enzymatic panel); SGC in-house recombinant human kinases (DSF panel); Invitrogen (ALK1-6)
Summary of the method: as §1

TBK1 = target: T3, TBK1 (Homo sapiens, UniProt Q9UHD2); details: read-out: Percentage inhibition; for inhibition at 0.1 µM: 0.1 µM inhibitor; for inhibition at 1 µM: 1 µM inhibitor
T3 construct: purchased Nanosyn (enzymatic panel); SGC in-house recombinant human kinases (DSF panel); Invitrogen (ALK1-6)
T3 sequence (Q9UHD2 1-729): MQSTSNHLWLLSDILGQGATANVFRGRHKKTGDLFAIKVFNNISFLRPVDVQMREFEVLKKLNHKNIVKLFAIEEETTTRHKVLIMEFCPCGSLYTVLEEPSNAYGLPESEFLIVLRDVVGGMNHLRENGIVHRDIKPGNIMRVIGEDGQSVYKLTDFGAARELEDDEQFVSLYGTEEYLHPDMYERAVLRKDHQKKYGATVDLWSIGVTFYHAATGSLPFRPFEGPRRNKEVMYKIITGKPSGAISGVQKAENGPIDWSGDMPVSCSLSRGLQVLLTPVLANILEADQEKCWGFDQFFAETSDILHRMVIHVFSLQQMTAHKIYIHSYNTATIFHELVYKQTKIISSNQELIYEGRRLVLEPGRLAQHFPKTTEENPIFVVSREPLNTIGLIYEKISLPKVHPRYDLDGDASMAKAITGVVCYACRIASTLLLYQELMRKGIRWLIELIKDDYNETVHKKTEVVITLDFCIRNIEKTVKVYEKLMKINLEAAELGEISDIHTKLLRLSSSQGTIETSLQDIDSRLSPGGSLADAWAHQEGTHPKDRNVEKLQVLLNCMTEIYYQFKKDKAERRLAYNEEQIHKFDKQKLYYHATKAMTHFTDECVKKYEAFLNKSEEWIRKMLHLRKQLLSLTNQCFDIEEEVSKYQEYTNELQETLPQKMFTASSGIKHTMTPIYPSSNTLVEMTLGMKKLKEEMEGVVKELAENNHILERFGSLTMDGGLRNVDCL
Summary of the method: as §1

MSK1 = target: T4, MSK1 (Homo sapiens, UniProt O75582); details: read-out: Percentage inhibition; for inhibition at 0.1 µM: 0.1 µM inhibitor; for inhibition at 1 µM: 1 µM inhibitor
T4 construct: purchased Nanosyn (enzymatic panel); SGC in-house recombinant human kinases (DSF panel); Invitrogen (ALK1-6)
Summary of the method: as §1

BRK = target: T5, BRK (Homo sapiens, UniProt Q13882); details: read-out: Percentage inhibition; for inhibition at 0.1 µM: 0.1 µM inhibitor; for inhibition at 1 µM: 1 µM inhibitor
T5 construct: purchased Nanosyn (enzymatic panel); SGC in-house recombinant human kinases (DSF panel); Invitrogen (ALK1-6)
T5 sequence (Q13882 whole entry): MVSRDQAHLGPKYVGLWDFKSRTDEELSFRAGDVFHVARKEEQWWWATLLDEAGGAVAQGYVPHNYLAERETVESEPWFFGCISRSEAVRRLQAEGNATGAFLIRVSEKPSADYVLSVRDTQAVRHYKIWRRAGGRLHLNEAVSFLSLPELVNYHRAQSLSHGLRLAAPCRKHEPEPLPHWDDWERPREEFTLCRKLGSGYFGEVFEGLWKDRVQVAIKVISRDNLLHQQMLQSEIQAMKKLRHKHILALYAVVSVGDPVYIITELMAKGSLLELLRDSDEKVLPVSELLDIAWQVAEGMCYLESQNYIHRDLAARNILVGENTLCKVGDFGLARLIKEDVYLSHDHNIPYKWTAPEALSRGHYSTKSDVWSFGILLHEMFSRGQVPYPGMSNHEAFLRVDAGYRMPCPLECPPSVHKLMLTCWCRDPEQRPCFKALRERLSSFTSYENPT
Summary of the method: as §1

CLK2 = target: T6, CLK2 (Homo sapiens, UniProt P49760); details: read-out: Percentage inhibition; for inhibition at 0.1 µM: 0.1 µM inhibitor; for inhibition at 1 µM: 1 µM inhibitor
T6 construct: purchased Nanosyn (enzymatic panel); SGC in-house recombinant human kinases (DSF panel); Invitrogen (ALK1-6)
T6 sequence (P49760 whole entry): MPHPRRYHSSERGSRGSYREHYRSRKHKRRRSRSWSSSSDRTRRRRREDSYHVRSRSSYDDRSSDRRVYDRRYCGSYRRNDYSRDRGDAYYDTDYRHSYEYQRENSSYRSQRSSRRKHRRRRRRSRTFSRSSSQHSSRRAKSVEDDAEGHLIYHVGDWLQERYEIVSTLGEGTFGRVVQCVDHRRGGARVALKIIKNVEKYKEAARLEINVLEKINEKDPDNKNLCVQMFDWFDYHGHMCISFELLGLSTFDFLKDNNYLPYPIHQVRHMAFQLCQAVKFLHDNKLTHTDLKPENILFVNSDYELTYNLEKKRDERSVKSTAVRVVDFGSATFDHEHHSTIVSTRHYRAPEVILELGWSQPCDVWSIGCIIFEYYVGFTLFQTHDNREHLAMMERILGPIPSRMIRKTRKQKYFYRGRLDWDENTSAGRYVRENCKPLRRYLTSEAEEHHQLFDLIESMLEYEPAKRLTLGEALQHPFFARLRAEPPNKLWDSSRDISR
Summary of the method: as §1

AURKA = target: T7, AURKA (Homo sapiens, UniProt O14965); details: read-out: Percentage inhibition; for inhibition at 0.1 µM: 0.1 µM inhibitor; for inhibition at 1 µM: 1 µM inhibitor
T7 construct: purchased Nanosyn (enzymatic panel); SGC in-house recombinant human kinases (DSF panel); Invitrogen (ALK1-6)
T7 sequence (O14965 1-403): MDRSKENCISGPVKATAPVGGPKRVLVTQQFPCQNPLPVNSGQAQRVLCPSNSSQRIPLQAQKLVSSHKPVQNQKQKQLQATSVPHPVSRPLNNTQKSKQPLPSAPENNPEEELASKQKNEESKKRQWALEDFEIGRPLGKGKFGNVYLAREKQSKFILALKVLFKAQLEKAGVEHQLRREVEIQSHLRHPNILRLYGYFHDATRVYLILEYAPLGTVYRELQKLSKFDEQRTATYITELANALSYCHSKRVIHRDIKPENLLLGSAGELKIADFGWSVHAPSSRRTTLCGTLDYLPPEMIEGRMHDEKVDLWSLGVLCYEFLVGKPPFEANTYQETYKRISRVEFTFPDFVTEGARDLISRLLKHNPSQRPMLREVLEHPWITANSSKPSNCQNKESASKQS
Summary of the method: as §1

ERBB2 = target: T8, ERBB2 (Homo sapiens, UniProt P04626); details: read-out: Percentage inhibition; for inhibition at 0.1 µM: 0.1 µM inhibitor; for inhibition at 1 µM: 1 µM inhibitor
T8 construct: purchased Nanosyn (enzymatic panel); SGC in-house recombinant human kinases (DSF panel); Invitrogen (ALK1-6)
T8 sequence (P04626 23-1255): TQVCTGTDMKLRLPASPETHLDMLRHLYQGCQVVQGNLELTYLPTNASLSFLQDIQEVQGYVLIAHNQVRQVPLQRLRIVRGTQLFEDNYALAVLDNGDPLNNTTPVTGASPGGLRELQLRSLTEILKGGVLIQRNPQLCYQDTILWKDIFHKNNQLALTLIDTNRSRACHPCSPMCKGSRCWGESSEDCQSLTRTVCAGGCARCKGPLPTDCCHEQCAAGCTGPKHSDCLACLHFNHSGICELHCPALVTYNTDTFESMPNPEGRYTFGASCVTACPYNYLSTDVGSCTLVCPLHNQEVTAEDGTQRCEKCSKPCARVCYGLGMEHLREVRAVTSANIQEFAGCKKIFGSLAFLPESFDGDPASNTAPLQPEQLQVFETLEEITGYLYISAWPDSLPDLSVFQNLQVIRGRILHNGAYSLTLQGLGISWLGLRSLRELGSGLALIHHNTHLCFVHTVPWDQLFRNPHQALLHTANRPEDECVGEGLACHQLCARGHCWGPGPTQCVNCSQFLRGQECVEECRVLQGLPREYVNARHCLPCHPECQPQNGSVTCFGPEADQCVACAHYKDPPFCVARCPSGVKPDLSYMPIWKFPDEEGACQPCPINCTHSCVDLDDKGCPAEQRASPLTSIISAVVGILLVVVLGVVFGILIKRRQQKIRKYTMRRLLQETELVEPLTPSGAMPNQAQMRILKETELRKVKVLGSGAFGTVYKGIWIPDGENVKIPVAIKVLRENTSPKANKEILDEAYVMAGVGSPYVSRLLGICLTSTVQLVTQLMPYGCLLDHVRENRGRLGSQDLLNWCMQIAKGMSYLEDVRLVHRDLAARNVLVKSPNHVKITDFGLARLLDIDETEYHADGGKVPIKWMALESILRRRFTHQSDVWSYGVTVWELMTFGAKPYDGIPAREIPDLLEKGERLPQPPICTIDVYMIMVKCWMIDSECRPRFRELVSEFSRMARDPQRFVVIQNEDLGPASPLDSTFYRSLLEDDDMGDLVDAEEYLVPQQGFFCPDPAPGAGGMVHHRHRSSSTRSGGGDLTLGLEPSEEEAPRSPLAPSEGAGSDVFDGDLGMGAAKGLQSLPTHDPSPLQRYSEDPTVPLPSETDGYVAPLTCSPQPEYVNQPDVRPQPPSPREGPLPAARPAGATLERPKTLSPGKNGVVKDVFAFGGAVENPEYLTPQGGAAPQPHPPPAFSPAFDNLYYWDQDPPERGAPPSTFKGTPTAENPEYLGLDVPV
Summary of the method: as §1

LCK = target: T9, LCK (Homo sapiens, UniProt P06239); details: read-out: Percentage inhibition; for inhibition at 0.1 µM: 0.1 µM inhibitor; for inhibition at 1 µM: 1 µM inhibitor
T9 construct: purchased Nanosyn (enzymatic panel); SGC in-house recombinant human kinases (DSF panel); Invitrogen (ALK1-6)
T9 sequence (P06239 whole entry): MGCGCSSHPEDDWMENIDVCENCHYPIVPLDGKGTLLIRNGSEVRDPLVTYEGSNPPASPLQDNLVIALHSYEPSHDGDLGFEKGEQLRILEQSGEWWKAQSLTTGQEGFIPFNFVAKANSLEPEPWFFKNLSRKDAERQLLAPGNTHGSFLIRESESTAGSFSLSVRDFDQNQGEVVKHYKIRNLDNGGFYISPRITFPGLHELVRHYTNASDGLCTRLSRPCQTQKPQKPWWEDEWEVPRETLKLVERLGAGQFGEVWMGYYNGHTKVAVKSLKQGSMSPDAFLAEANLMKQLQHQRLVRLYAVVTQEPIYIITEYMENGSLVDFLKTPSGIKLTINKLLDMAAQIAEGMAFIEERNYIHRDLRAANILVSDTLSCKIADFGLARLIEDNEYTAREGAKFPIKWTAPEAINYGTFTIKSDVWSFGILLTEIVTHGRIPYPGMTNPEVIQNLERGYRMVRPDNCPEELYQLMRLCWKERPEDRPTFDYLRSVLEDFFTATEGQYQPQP
Summary of the method: as §1

FES = target: T10, FES (Homo sapiens, UniProt P07332); details: read-out: Percentage inhibition; for inhibition at 0.1 µM: 0.1 µM inhibitor; for inhibition at 1 µM: 1 µM inhibitor
T10 construct: purchased Nanosyn (enzymatic panel); SGC in-house recombinant human kinases (DSF panel); Invitrogen (ALK1-6)
T10 sequence (P07332 whole entry): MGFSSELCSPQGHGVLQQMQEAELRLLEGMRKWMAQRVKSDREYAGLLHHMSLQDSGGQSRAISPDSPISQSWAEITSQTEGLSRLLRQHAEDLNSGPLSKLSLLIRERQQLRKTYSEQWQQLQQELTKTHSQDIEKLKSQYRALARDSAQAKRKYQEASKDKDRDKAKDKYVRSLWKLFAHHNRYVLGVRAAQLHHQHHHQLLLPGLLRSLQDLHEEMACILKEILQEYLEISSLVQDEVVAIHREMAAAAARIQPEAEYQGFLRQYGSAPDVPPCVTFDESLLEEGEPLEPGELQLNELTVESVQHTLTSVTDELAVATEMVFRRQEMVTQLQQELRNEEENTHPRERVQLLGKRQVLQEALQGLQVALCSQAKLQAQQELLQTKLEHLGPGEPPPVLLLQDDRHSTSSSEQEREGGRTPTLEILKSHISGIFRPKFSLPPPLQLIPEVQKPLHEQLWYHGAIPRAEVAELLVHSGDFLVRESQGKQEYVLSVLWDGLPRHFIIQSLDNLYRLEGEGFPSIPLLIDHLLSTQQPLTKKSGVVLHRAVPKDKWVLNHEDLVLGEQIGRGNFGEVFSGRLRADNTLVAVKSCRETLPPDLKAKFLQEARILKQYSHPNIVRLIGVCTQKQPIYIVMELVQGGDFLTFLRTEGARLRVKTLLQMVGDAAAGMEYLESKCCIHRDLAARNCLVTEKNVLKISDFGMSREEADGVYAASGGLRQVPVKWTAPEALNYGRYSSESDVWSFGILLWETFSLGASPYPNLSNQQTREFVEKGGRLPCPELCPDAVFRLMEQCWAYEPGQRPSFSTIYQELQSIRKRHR
Summary of the method: as §1

PI4-K-β = target: T11, PI4-K-β (Homo sapiens, UniProt Q9UBF8); details: read-out: Percentage inhibition; for inhibition at 0.1 µM: 0.1 µM inhibitor; for inhibition at 1 µM: 1 µM inhibitor
T11 construct: purchased Nanosyn (enzymatic panel); SGC in-house recombinant human kinases (DSF panel); Invitrogen (ALK1-6)
Summary of the method: as §1

PAK3 = target: T12, PAK3 (Homo sapiens, UniProt O75914); details: read-out: Percentage inhibition; for inhibition at 0.1 µM: 0.1 µM inhibitor; for inhibition at 1 µM: 1 µM inhibitor
T12 construct: purchased Nanosyn (enzymatic panel); SGC in-house recombinant human kinases (DSF panel); Invitrogen (ALK1-6)
T12 sequence (O75914 whole entry): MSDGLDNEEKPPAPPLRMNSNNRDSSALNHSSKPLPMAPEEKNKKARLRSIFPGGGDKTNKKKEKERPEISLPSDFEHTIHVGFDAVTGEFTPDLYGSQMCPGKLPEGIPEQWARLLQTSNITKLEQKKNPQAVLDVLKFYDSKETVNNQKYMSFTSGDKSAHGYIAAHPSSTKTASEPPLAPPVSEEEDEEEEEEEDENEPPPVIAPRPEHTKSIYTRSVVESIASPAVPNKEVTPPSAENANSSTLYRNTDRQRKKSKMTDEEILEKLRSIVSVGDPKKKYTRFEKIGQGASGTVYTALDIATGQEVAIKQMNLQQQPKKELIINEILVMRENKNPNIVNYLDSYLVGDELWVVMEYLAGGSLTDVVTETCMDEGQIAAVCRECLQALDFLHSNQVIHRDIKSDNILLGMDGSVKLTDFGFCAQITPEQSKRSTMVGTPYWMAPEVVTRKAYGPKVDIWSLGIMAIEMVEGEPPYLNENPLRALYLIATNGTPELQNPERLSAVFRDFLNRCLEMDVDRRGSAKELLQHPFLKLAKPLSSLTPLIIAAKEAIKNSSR
Summary of the method: as §1

FGFR2 = target: T13, FGFR2 (Homo sapiens, UniProt P21802); details: read-out: Percentage inhibition; for inhibition at 0.1 µM: 0.1 µM inhibitor; for inhibition at 1 µM: 1 µM inhibitor
T13 construct: purchased Nanosyn (enzymatic panel); SGC in-house recombinant human kinases (DSF panel); Invitrogen (ALK1-6)
Summary of the method: as §1

ALK = target: T14, ALK (Homo sapiens, UniProt Q9UM73); details: read-out: Percentage inhibition; for inhibition at 0.1 µM: 0.1 µM inhibitor; for inhibition at 1 µM: 1 µM inhibitor
T14 construct: purchased Nanosyn (enzymatic panel); SGC in-house recombinant human kinases (DSF panel); Invitrogen (ALK1-6)
Summary of the method: as §1

BTK = target: T15, BTK (Homo sapiens, UniProt Q06187); details: read-out: Percentage inhibition; for inhibition at 0.1 µM: 0.1 µM inhibitor; for inhibition at 1 µM: 1 µM inhibitor
T15 construct: purchased Nanosyn (enzymatic panel); SGC in-house recombinant human kinases (DSF panel); Invitrogen (ALK1-6)
T15 sequence (Q06187 whole entry): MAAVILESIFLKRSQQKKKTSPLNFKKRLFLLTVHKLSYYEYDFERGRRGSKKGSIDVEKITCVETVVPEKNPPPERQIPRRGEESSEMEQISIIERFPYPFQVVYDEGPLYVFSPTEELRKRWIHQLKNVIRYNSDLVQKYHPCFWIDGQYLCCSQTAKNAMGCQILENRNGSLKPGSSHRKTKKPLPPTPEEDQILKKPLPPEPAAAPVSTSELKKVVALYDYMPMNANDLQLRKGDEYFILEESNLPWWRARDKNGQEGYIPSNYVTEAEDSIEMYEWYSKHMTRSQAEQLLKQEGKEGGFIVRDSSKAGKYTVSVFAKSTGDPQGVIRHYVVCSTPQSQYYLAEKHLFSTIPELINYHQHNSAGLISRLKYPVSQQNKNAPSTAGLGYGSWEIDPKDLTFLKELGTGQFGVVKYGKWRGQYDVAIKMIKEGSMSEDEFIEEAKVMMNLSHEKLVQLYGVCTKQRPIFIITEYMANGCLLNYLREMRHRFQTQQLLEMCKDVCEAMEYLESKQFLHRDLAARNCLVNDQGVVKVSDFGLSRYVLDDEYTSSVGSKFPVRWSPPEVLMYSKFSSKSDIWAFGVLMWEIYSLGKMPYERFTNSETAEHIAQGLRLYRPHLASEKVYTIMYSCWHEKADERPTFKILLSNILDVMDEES
Summary of the method: as §1

[1] = read-out: Percentage inhibition

Structure (SMILES)	inhibition at 0.1 µM (ERBB4)	inhibition at 1 µM (ERBB4)	Percentage inhibition (ABL1; 0.1 µM inhibitor)	inhibition at 1 µM (ABL1; [1])	inhibition at 0.1 µM (TBK1)	inhibition at 1 µM (TBK1)	inhibition at 0.1 µM (MSK1)	inhibition at 1 µM (MSK1)	inhibition at 0.1 µM (BRK)	inhibition at 1 µM (BRK)	inhibition at 0.1 µM (CLK2)	inhibition at 1 µM (CLK2)	inhibition at 0.1 µM (AURKA)	inhibition at 1 µM (AURKA)	inhibition at 0.1 µM (ERBB2)	inhibition at 1 µM (ERBB2)	inhibition at 0.1 µM (LCK)	inhibition at 1 µM (LCK)	inhibition at 0.1 µM (FES)	inhibition at 1 µM (FES)	also measured
COc1cc(-c2cc(-c3cccc(O)c3)cnc2N)cc(OC)c1OC [K02288, 3-[6-amino-5-(3,4,5-trimethoxy-phenyl)-pyridin-3-yl]-phenol]	-5%	0.9%	79% and > 50%	89%	1.5%	3.7%	-2%	-1%	13%	66%	0%	0%	-2%	-1%	-5%	-3%	13%	58%	-1%	-1%	inhibition at 0.1 µM (PI4-K-β): 0.8%; inhibition at 1 µM (PI4-K-β): -4%; inhibition at 0.1 µM (PAK3): -3%; inhibition at 1 µM (PAK3): -2%; inhibition at 0.1 µM (FGFR2): 0.3%; inhibition at 1 µM (FGFR2): 1.1%; inhibition at 0.1 µM (ALK): -1%; inhibition at 1 µM (ALK): 2.5%; inhibition at 0.1 µM (BTK): 0.5%; inhibition at 1 µM (BTK): 6.6%
c1ccc2c(-c3cnn4cc(-c5ccc(N6CCNCC6)cc5)cnc34)ccnc2c1 [LDN-193189]	6.1%	11%	> 50%	84%	4.5%	16%	1.1%	1.3%	13%	57%	2.3%	35%	4.2%	23%	2.1%	2.1%	12%	46%	2.2%	2.4%	inhibition at 0.1 µM (ABL1; 0.1 µM inhibitor, read-out: Percentage inhibition): 62%; inhibition at 0.1 µM (PI4-K-β): 3.5%; inhibition at 1 µM (PI4-K-β): 5.8%; inhibition at 0.1 µM (PAK3): 2.9%; inhibition at 1 µM (PAK3): 1.8%; inhibition at 0.1 µM (FGFR2): 5%; inhibition at 1 µM (FGFR2): 18%; inhibition at 0.1 µM (ALK): 3.7%; inhibition at 1 µM (ALK): 12%; inhibition at 0.1 µM (BTK): 0.5%; inhibition at 1 µM (BTK): 1.8%
